Measurements as given in patent publication US4898878A, “Antioxidant thiohistidine compounds” (priority 1987, dated 1990).

Experiments:
ovoperoxidase = ovoperoxidase (Strongylocentrotus purpuratus, UniProt O44391); assay: CN--resistant NAD(P)H-O2 oxidoreductase (oxidase) activity of ovoperoxidase, thiol cofactor; assay type: biochemical; details: for cofactor for the CN--resistant oxidase reaction: in place of ovothiol
Experimental: NAD(P)H--02 oxidoreductase activity was measured by following the oxidation of reduced pyridine nucleotides spectrophotometrically at 360 nm in a Gilford 420 spectrophotometer. The off-peak wavelength of 360 nm for reduced pyridine nucleotides allowed the use of higher concentrations in a 1.0 cm pathlength cuvette. Assays were conducted in a 1 ml volume containing 50 mM NaCl, 20mM Hepes, 20 mM Tris, at pH 8.0 and 25° C., to which was added for routine assays 0.4 mM NADH, 0.5 mM MnCl2, 1 mM NaCN, 134 nM ovoperoxidase, and the appropriate amount of ovothiol preparation. One unit of activity is defined as the amount of ovothiol needed to stimulate consumption of 1.0 nanomoles NADH/min. […] Assays were initiated with NADH unless otherwise specified.

[1] = Trapping of tyrosyl radicals: photochemical dityrosine formation
Excerpt: The known photochemical crosslinking of tyrosine (Amado, R., et al., Methods Enzymol. 107:377, 1984; Malencik, D. A., and S. R. Anderson, Biochem. 26:695, 1987; Joschek, H.-I., and S. I. Miller, J. Am. Chem. Soc. 88:3273, 1986) may be used as an assay for tyrosyl radical scavenging ability. This reaction proceeds by photochemical excitation of tyrosine, followed by an ejection of an electron to yield a tyrosyl radical. The ejected electron is apparently scavenged by oxygen, as evidenced by the augmentation of the tyrosine crosslinking rate on addition of SOD (scavenging 02^.-, thus slowing the back reaction of tyrosyl radical and 02^.- to yield tyrosine and 02). The tyrosyl radicals couple with one another to yield dityrosine, which is detected by its characteristic fluorescence. […] This is strong evidence that ovothiol can act as an efficient tyrosyl radical scavenger. This assay is mechanistically relatively simple technique for assaying antioxidants.

[2] = Non-enzymic direct reaction of thiol with H2O2; assay type: physicochemical; details: metal-free solutions containing EDTA; for second order rate constant for reaction with H2O2: non-enzymic
Experimental: The non-enzymic reaction of OSH and H2 02 was measured and compared with GSH reacting with H2 02.
These preliminary studies were done in metal-free solutions containing EDTA, so additional experiments can compare the effect of ions of Fe, Mn, and Cu, as well as certain liganded derivatives such as hematin and vitamin B12, on the reaction. […] Oxidation of ovothiol can be monitored by its absorbance change at 310 nm (Turner et al., 1986) and glutathione by coupling the reaction to glutathione reductase and NADPH oxidation.

[3] = test system: xanthine/xanthine oxidase system; details: cited from earlier work
[4] = Inhibition of pyrogallol autooxidation
Excerpt: The inhibition of the air oxidation of pyrogallol has been used previously as an assay for superoxide dismutase (SOD) (Marklund, S., and G. Marklund, Eur. J. Biochem. 47:469, 1974; Roth, E. F. Jr., and H. S. Gilbert, Anal. Biochem. 137:50, 1984).

[5] = test system: xanthine/xanthine oxidase system; assay: Xanthine oxidase-dependent oxyradical production, thiol oxidation; assay type: biochemical
Excerpt: Xanthine oxidase with both acetaldehyde and xanthine as substrates (both xanthine and its product uric acid react with OH^.) are used to determine whether the aromatic thiols or glutathione are oxidized by this reaction, or whether they inhibit cytochrome C reduction (McCord, J. M., and I. Fridovich, J. Biol. Chem. 244:6049-6054, 1969; Crapo, J. D., et al, Methods in Enzymology 530:382-386, 1977). For example, the ovothiol analogue H3 is oxidized by the xanthine/xanthine oxidase system, and that this can be suppressed by up to 50% by addition of SOD. Since GSH is protected only 20% by SOD in this assay (Wefers, H., and H. Sies, Europ. J. Biochem. 137:2936, 1983; Ross, D., et al., Biochem. Biophys. Acta 841:278, 1983), this implies a higher reactivity of 4-mercaptohistidines toward 02^.-. Differences between the reactions with acetaldehyde and xanthine will implicate OH^. in the process.

cultured myoblasts = assay: Toxicity to cultured myoblasts (colony formation, 3H-TdR incorporation); assay type: cell-based; details: administered as the disulfide
sea urchin eggs [6] = assay: Toxicity to sea urchin eggs (inhibition of first cellular division after fertilization); assay type: cell-based; details: administered as the disulfide
Excerpt: This aspect of the screening program introduces additional complications. For example, certain thiols are toxic to cells (Heinecke, J. W., et al., J. Biol. Chem. 262, 1987; Issels, R., et al., in Superoxide and Superoxide Dismutase in Chemistry, Biology, and Medicine, ed. G. Rotilio, pp. 419-421, Elsevier, N.Y., 1986) because they can autooxidize and produce reactive oxygen intermediates (Misra, H. R., J. Biol. Chem. 249:2151-2155,1974). Thiol toxicity may be due to redox cycling; for example, when cystine is given to cells it damages lipoproteins, apparently by being reduced to cysteine intracellularly then exiting to reoxidize and produce oxygen radicals and cellular damage. When we administered compound H3 (containing the reactive 4-mercaptoimidazole ring without the amino acid side chain) to sea urchin eggs, it was toxic at 2 mM but not at 200 μM (as assessed inhibition of the first cellular division after fertilization). […] We tried compound H3 because we thought it would be permeant, having no charged side chain; we administered it to these cells as the disulfide. We infer that the toxicity was caused by redox cycling, with H3 being taken up, reduced, and the thiol being reoxidized extracellularly to produce reactive oxygen intermediates. […]

[7] = Reduction of Fremy's salt nitroxide radical; details: pH 7.0
Excerpt: Fremy's salt (K^+- 03 SN(0^.)SO3^- K^+) is a stable, commercially available nitroxide radical. Reduction of this radical can be followed by UV or ESR. […] In this assay, a relatively large difference was seen between two aromatic thiols, H3 and thiophenol.

[8] = Reduction of ovothiol disulfide (OSSO) by reduced glutathione; assay type: physicochemical
Experimental: The redox potential of ovothiol was determined, as were the kinetics for its interaction with glutathione and H2 02. The mid-point potential (E^o') was estimated indirectly by determining the equilibrium in reaction with other known thiol-disulfide equilibria, since direct determination of (E^o') for thiols is typically complicated by artifacts. […] Appropriate corrections were made for the mixed disulfides present at different concentrations of ovothiol and glutathione. E^o' (30^o) for ovothiol was 44 mV positive relative to glutathione, or -0.196 V. Thus, the ΔG^o' for the reduction of ovothiol disulfide (OSSO) by reduced glutathione (GSH) is […], so that at equilibrium reduced ovothiol (OSH) predominates in a mixture of equimolar oxidized ovothiol (OSSO) and reduced glutathione (GSH). From a thermodynamic point of view, ovothiol can be maintained almost entirely in the reduced state by GSH, and thus by NADPH via glutathione reductase, without the need for a specific ovothiol reductase. […] Because reduced glutathione reduces ovothiol, a functional ovothiol reductase reaction exists by coupling reactions and [6]. The second order rate constant for ovothiol reduction by glutathione is 88M^-1 S^-1. We calculate that egg glutathione reductase is sufficient to produce 4.1 pmol GSH/min; with an egg GSH content of 0.9 pmol, it would take only 13 seconds for the egg to regenerate its entire GSH content from GSSG, if NADPH were present (which it is after fertilization). […] In other words, reduction of ovothiol is rapid at the concentrations of glutathione and ovothiol of the egg, and an enzymatic "ovothiol reductase" is not required to catalyze reaction.

eggs = assay: Oxygen consumption by eggs; assay type: cell-based, sea urchin
Excerpt: First, both ovothiol and NAD(P)H are intracellular metabolites, whereas ovoperoxidase is extracellular during the respiratory burst. […] Second, H2 02 is not released stoichiometrically by the ovoperoxidase-oxidase, so this cannot account for the significant concentrations of H2 02 previously detected at fertilization. Third, aminotriazole inhibits both the NAD(P)H oxidase and peroxidase activities of ovoperoxidase, yet has no effect on oxygen consumption by eggs.

[9] = test system: fertilized sea urchin eggs; assay type: in vitro ADME
Experimental: First, the conditions under which ovothiols A or C are transported into the cells of interest are determined using radioactive ovothiol derivatives. For example, by reacting ovothiol A with ^3 H-formaldehyde and reduction by NaBH4, ovothiol A was converted into ^3 H-ovothiol C. […] The km for OSH uptake appears to be higher than for histidines, although the Vmax may be similar. We measure the kinetics of ovothiol uptake into the cells to be studied, in order to identify optimal conditions for transport. We no only use ^3 H-ovothiol C but also synthesize ^3 H-ovothiol A by using ^14 C--HCHO in the abovedescribed chemical synthesis procedure.

sea urchin eggs [10] = assay: First cell division of sea urchin eggs after iodoacetamide treatment; assay type: cell-based; details: for cell division: 0.25 mM iodoacetamide
Excerpt: The following biological experiment further implicates ovothiol in protection of eggs from H2 02 produced during the respiratory burst. If ovothiol were important in protection, then its absence should lead to embryonic lethality. […] However, iodoacetamide might have reacted with critical proteins (or other components) required for cell division, so that experiment was not definitive in implicating ovothiol. More recently, we added exogeneous catalase to eggs derivatized with iodoacetamide. Catalase should act as a second mechanism for removing H2 02 and partially compensate for the iodoacetamide treatment. The first cell division was blocked for eggs treated with 1.0 mM iodoacetamide prior to the respiratory burst (7% cleavage vs. 90% of control eggs). With catalase present during the respiratory burst, 70% of IAA-treated eggs divided (and 90% of the controls). Pretreatment with 0.25 mM iodoacetamide decreased cleavage to 75%; with exogenous 0.1 mM H2 02 added, cell division occurred in only 2% of these eggs, and with catalase present in 90%. Control eggs (not treated with iodoacetamide) were unaffected by 0.1 mM H2 02.

[11] = Mid-point redox potential from equilibrium with glutathione thiol-disulfide; assay type: physicochemical; details: 30°
Experimental: The redox potential of ovothiol was determined, as were the kinetics for its interaction with glutathione and H2 02. The mid-point potential (E^o') was estimated indirectly by determining the equilibrium in reaction with other known thiol-disulfide equilibria, since direct determination of (E^o') for thiols is typically complicated by artifacts. […] Appropriate corrections were made for the mixed disulfides present at different concentrations of ovothiol and glutathione. E^o' (30^o) for ovothiol was 44 mV positive relative to glutathione, or -0.196 V. Thus, the ΔG^o' for the reduction of ovothiol disulfide (OSSO) by reduced glutathione (GSH) is -0.386 kcal, so that at equilibrium reduced ovothiol (OSH) predominates in a mixture of equimolar oxidized ovothiol (OSSO) and reduced glutathione (GSH). From a thermodynamic point of view, ovothiol can be maintained almost entirely in the reduced state by GSH, and thus by NADPH via glutathione reductase, without the need for a specific ovothiol reductase. […] Because reduced glutathione reduces ovothiol, a functional ovothiol reductase reaction exists by coupling reactions and [6]. The second order rate constant for ovothiol reduction by glutathione is 88M^-1 S^-1. […]

ovoperoxidase, sequence (O44391 entry or part of it): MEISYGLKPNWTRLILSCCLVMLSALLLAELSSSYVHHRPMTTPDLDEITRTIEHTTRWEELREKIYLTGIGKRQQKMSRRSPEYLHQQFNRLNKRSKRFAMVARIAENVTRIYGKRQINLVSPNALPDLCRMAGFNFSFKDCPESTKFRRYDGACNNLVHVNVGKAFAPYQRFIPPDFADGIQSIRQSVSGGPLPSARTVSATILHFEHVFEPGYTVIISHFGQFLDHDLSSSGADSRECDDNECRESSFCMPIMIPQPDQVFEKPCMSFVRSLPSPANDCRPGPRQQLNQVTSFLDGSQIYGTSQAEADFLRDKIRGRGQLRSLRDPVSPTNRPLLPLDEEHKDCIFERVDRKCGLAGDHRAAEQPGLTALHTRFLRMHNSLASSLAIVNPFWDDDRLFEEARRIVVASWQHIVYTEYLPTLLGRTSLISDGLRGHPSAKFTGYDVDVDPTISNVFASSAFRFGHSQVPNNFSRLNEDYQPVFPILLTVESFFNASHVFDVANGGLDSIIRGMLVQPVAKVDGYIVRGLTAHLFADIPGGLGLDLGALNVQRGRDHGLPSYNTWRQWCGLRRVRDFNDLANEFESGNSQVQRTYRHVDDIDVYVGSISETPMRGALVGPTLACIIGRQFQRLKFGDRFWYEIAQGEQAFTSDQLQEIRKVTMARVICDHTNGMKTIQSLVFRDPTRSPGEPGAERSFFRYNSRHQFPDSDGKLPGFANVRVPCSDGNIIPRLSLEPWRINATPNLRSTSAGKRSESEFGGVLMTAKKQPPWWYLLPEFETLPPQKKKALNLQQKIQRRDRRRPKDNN

CC(C)(COP(=O)(O)OP(=O)(O)OC[C@H]1O[C@@H](n2cnc3c(N)ncnc32)[C@H](O)[C@@H]1OP(=O)(O)O)[C@@H](O)C(=O)NCCC(=O)NCCS [Coenzyme A]
cofactor for the CN--resistant oxidase reaction (ovoperoxidase): could not be replaced by

N[C@@H](CCC(=O)N[C@@H](CS)C(=O)NCC(=O)O)C(=O)O [GSH, glutathione]
inhibition of photochemical dityrosine formation [1]: at least an order of magnitude less effective
second order rate constant for reaction with H2O2 [2]: 1.5 M^-1 S^-1
cofactor for the CN--resistant oxidase reaction (ovoperoxidase): could not be replaced by
protection by SOD in this assay [3]: 20%
concentration needed for effect, relative to H3 [4]: 50 fold
effect on air oxidation of pyrogallol [4]: more modest inhibitory effect

Cc1c(S)ncn1C [H3, 1,5-dimethyl-4-mercaptoimidazole]
oxidation by the xanthine/xanthine oxidase system [5]: is oxidized
suppression of oxidation by addition of SOD ([5]; xanthine/xanthine oxidase): up to 50%
inhibition of photochemical dityrosine formation [1]: strong inhibitor
effect on dityrosine formation at 1 μM ([1]; 1 μM): slowing the reaction for several minutes
colony formation of cultured myoblasts (cultured myoblasts; 200 μM): inhibited colony formation
IC50 (cultured myoblasts; Myoblast, cultured myoblasts, read-out: half-maximal effect on 3H-TdR incorporation): 15 µM
effect on air oxidation of pyrogallol [4]: induces a time lag
toxicity to sea urchin eggs at 200 μM (sea urchin eggs [6]; 200 μM): not
toxicity to sea urchin eggs at 2 mM (sea urchin eggs [6]; 2 mM): toxic
rate of reduction of Fremy's salt relative to glutathione [7]: ~40 fold
rate of reduction of Fremy's salt relative to thiophenol [7]: roughly ten-fold faster
rate of reduction of Fremy's salt, rank [7]: fastest radical scavenger

CN(C)[C@@H](Cc1c(SSc2ncn(C)c2C[C@@H](C(=O)O)N(C)C)ncn1C)C(=O)O [OSSO]
ΔG°' for reduction of ovothiol disulfide (OSSO) by reduced glutathione (GSH) [8]: -0.386 kcal
t1/2 for reduction of OSSO to OSH ([8]; normal cellular GSH levels): 1.6 s

Nc1nc[nH]n1 [aminotriazole]
effect on oxygen consumption by eggs (eggs): no effect

N[C@@H](CS)C(=O)O [cysteine]
cofactor for the CN--resistant oxidase reaction (ovoperoxidase): could not be replaced by

C[N+](C)(C)[C@@H](Cc1c[nH]c(=S)[nH]1)C(=O)[O-] [ergothioneine]
cofactor for the CN--resistant oxidase reaction (ovoperoxidase): could not be replaced by

N[C@@H](Cc1c[nH]cn1)C(=O)O [histidine]
uptake by fertilized sea urchin eggs [9]: 38 fmol/egg/hr

NC(=O)CI [iodoacetamide]
cell division (sea urchin eggs [10]; 0.1 mM H2O2, catalase present): 90%
cell division (sea urchin eggs [10]; exogenous 0.1 mM H2O2 added): 2%
cleavage (first cell division) (sea urchin eggs [10]; 1.0 mM iodoacetamide prior to respiratory burst): 7%
eggs divided (sea urchin eggs [10]; 1.0 mM iodoacetamide, catalase present during respiratory burst): 70%
cleavage (sea urchin eggs [10]; pretreatment with 0.25 mM iodoacetamide): 75%

CN(C)[C@@H](Cc1c(S)ncn1C)C(=O)O [ovothiol C, 1-methyl-N^α N^α -dimethyl-4-thiolhistidine]
rate with H2O2 relative to reduced glutathione [2]: ~2.3 fold
second order rate constant for reaction with H2O2 [2]: 3.34 M^-1 S^-1
second order rate constant for reaction with H2O2 ([2]; listed as OSH): 3.3 M^-1 S^-1
ovothiol concentration giving maximal oxidase activity (ovoperoxidase): 1 mM
km for uptake compared with histidines [9]: higher
uptake by fertilized sea urchin eggs [9]: 6 fmol/egg/hr
E°' mid-point potential [11]: -0.196 V
E°' relative to glutathione (positive) [11]: 44 mV
second order rate constant for ovothiol reduction by glutathione [8]: 88 M^-1 S^-1

Sc1ccccc1 [thiophenol]
effect on air oxidation of pyrogallol [4]: similar, though not identical

catalase
inhibition of the NAD(P)H oxidase activity of ovoperoxidase (ovoperoxidase): inhibited

superoxide dismutase
inhibition of the NAD(P)H oxidase activity of ovoperoxidase (ovoperoxidase): inhibited
